From ChEMBL document CHEMBL3727358, “Inhibitors of inducible form of 6-phosphofructose-2-kinase” (2014)

Target: 6-phosphofructo-2-kinase/fructose-2,6-bisphosphatase 3 (Homo sapiens, UniProt Q16875)
Experiment: Inhibition of iPFK2 (unknown origin) assessed as reduction in enzyme-mediated fructose-6-phosphate phosphorylation by measuring ATP consumption incubated for 3 hrs by luciferase-luciferin-coupled chemiluminescence assay

Sequence of 6-phosphofructo-2-kinase/fructose-2,6-bisphosphatase 3 (Q16875 whole entry): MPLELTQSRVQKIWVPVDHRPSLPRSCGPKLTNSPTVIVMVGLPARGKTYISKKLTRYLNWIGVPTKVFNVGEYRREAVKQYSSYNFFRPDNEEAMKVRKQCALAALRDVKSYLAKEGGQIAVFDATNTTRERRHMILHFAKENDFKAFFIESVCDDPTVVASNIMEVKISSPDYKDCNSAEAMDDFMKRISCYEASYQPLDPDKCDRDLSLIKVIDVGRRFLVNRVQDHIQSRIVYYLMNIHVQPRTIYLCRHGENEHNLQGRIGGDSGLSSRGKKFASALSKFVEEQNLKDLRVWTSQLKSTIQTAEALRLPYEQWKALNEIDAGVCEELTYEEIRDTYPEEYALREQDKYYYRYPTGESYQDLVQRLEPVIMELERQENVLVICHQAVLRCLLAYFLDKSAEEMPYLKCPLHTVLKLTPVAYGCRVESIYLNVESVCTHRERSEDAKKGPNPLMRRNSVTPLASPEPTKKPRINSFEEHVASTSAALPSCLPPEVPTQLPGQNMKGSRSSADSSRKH

Compound | IC50
COc1cccc(CNc2cc(-c3ccc4occ(C)c4c3)nc(C)n2)c1 | 500 nM
CCc1coc2ccc(-c3cc(N[C@@H](C)c4cccc(OC)c4)nc(C)n3)cc12 | > 1000 nM
Cc1nc(NCCCN(C)c2ccccc2)cc(-c2ccc3ncsc3c2)n1 | > 1000 nM
COc1cccc(-c2cc(NC(C)c3cccc(S(N)(=O)=O)c3)nc(C)n2)c1 (stereo unspecified) | > 1000 nM
COc1cccc([C@H](C)Nc2cc(-c3cccc(OC(F)(F)F)c3)nc(C)n2)c1 | > 1000 nM
Cc1nc(NC(C)c2ccnc(Cl)c2)cc(-c2ccc3ncsc3c2)n1 (stereo unspecified) | 500 nM
CNC(=O)COc1cccc(C(C)Nc2cc(-c3cccc(OC)c3)nc(C)n2)c1 (stereo unspecified) | 500 nM
Cc1nc(NC(C)c2cccc(OCc3noc(C)n3)c2)cc(-c2ccc3ncsc3c2)n1 (stereo unspecified) | 500 nM
COc1cccc(-c2cc(NC(C)c3cccc(S(=O)(=O)NCC#N)c3)nc(C)n2)c1 (stereo unspecified) | 500 nM
Cc1nc(N[C@@H]2CCCc3ccccc32)cc(-c2cccc(C=O)c2)n1 | > 1000 nM
CCOC(=O)CCCOc1cccc(C(C)Nc2cc(-c3ccc4ccn(C)c4c3)nc(C)n2)c1 (stereo unspecified) | 500 nM
Cc1ccc([C@H](C)Nc2cc(-c3ccc4ccn(C)c4c3)nc(C)n2)cc1 | 500 nM
CNC(=O)COc1cccc(C(C)Nc2cc(-c3ccc4c(c3)OCO4)nc(C)n2)c1 (stereo unspecified) | 500 nM
Cc1nc(NC[C@@H](C)c2ccccc2)cc(-c2ccc3ncsc3c2)n1 | > 1000 nM
CCc1cccc(-c2cc(N[C@@H]3CCCc4ccccc43)nc(C)n2)c1 | > 1000 nM
COc1cccc(-c2cc(NC(C)c3cccc(Br)c3)nc(C)n2)c1 (stereo unspecified) | > 1000 nM
COc1ccc2c(c1)C(Nc1cc(-c3ccc4ncsc4c3)nc(C)n1)CCC2 (stereo unspecified) | > 1000 nM
Cc1nc(NC2Cc3ccccc3C2)cc(-c2ccc3ncsc3c2)n1 | 500 nM
CCCCC(CC)CNc1cc(-c2ccc3ncsc3c2)nc(C)n1 (stereo unspecified) | 500 nM
COc1cccc(-c2cc(NC(C)c3cccc(S(=O)(=O)N(CC#N)C(=O)OC(C)(C)C)c3)nc(C)n2)c1 (stereo unspecified) | > 1000 nM
Cc1nc(NCCc2ccncc2)cc(-c2ccc3ncsc3c2)n1 | > 1000 nM
COc1cccc(-c2cc(NC(C)c3cccc(O)c3)nc(C)n2)c1 (stereo unspecified) | > 1000 nM
Cc1nc(N[C@@H](C)c2ccc(Cl)cc2)cc(-c2ccc3ccn(C)c3c2)n1 | > 1000 nM
Cc1nc(N[C@@H]2CCCc3ccccc32)cc(-c2cccnc2)n1 | > 1000 nM
CNC(=O)COc1cccc(C(C)Nc2cc(-c3cccc(OC)c3Cl)nc(C)n2)c1 (stereo unspecified) | 500 nM
Cc1nc(NCc2cc(-c3ccccc3)no2)cc(-c2ccc3ncsc3c2)n1 | > 1000 nM

Compound | IC50
Cc1ccc([C@H](C)Nc2cc(-c3ccc4occ(C)c4c3)nc(C)n2)cc1 | 500 nM
Cc1nc(NC(C)c2cccc(C#N)c2)cc(-c2ccc3ncsc3c2)n1 (stereo unspecified) | 500 nM
COc1cccc([C@H](C)Nc2cc(-c3ccnc(C)c3)nc(C)n2)c1 | > 1000 nM
Cc1nc(NCCc2c[nH]cn2)cc(-c2ccc3ncsc3c2)n1 | > 1000 nM
Cc1nc(N[C@@H]2CCCc3ccccc32)cc(-c2ccncc2)n1 | > 1000 nM
Cc1nc(N[C@H](C)c2cccc(-c3cnn(C)c3)c2)cc(-c2ccc3occ(C)c3c2)n1 | 500 nM
CCc1coc2ccc(-c3cc(NC(C)c4cccc(O)c4)nc(C)n3)cc12 (stereo unspecified) | > 1000 nM
Cc1nc(NCC2CCCN(C(=O)OC(C)(C)C)C2)cc(-c2ccc3ncsc3c2)n1 (stereo unspecified) | > 1000 nM
Cc1nc(NC(C)c2cccc(-c3noc(C)n3)c2)cc(-c2ccc3ncsc3c2)n1 (stereo unspecified) | > 1000 nM
Cc1nc(NC(C)c2cccc(-c3cnn(C)c3)c2)cc(-c2ccc3[nH]ccc3c2)n1 (stereo unspecified) | 500 nM
Cc1nc(N[C@@H]2CCCc3ccccc32)cc(-c2cccc(CO)c2)n1 | > 1000 nM
CC(=O)c1cccc(-c2cc(N[C@@H]3CCCc4ccccc43)nc(C)n2)c1 | > 1000 nM
COC(=O)CNc1cccc(C(C)Nc2cc(-c3cccc(OC)c3)nc(C)n2)c1 (stereo unspecified) | > 1000 nM
COc1cccc([C@H](C)Nc2cc(-c3cccc(OC)c3F)nc(C)n2)c1 | 500 nM
COc1cccc([C@H](C)Nc2cc(-c3cccc(C)c3)nc(C)n2)c1 | 500 nM
COC(=O)CNS(=O)(=O)c1cccc(C(C)Nc2cc(-c3cccc(OC)c3)nc(C)n2)c1 (stereo unspecified) | > 1000 nM
COc1cccc([C@H](C)Nc2cc(-c3ccc4c(ccn4C)c3)nc(C)n2)c1 | > 1000 nM
Cc1nc(N[C@@H]2CCCc3ccccc32)cc(-c2ccc3ccccc3c2)n1 | 500 nM
COc1cccc(-c2cc(NC(C)c3cccc(OCC#N)c3)nc(C)n2)c1 (stereo unspecified) | 500 nM
CCn1ccc2ccc(-c3cc(N[C@@H](C)c4cccc(OC)c4)nc(C)n3)cc21 | > 1000 nM
COc1cccc([C@H](C)Nc2cc(-c3ccncc3)nc(C)n2)c1 | > 1000 nM
Cc1cc(COc2cccc(C(C)Nc3cc(-c4cc5ccccc5n4C)nc(C)n3)c2)n(C)n1 (stereo unspecified) | 500 nM
Cc1cccc(-c2cc(N[C@@H]3CCCc4ccccc43)nc(C)n2)c1 | 500 nM
COc1ccc2c(c1)CCCC2Nc1cc(-c2ccc3ncsc3c2)nc(C)n1 (stereo unspecified) | 500 nM
COc1cccc([C@H](C)Nc2cc(-c3cccnc3)nc(C)n2)c1 | > 1000 nM
COc1cccc2c1CCCC2Nc1cc(-c2ccc3ncsc3c2)nc(C)n1 (stereo unspecified) | > 1000 nM

Compound | IC50
Cc1nc(NC(C)c2cccnc2)cc(-c2ccc3ncsc3c2)n1 (stereo unspecified) | 500 nM
COCCn1ccc2ccc(-c3cc(N[C@@H]4CCCc5ccccc54)nc(C)n3)cc21 | > 1000 nM
CCOC(=O)CNC(=O)COc1cccc(C(C)Nc2cc(-c3ccc4ccn(C)c4c3)nc(C)n2)c1 (stereo unspecified) | 500 nM
Cc1cccc(-c2cc(NC(C)c3cccc(-c4cnn(C)c4)c3)nc(C)n2)c1 (stereo unspecified) | 500 nM
CC(C)CCC(C)NC1C=C(c2ccc3ncsc3c2)N=CN1C (stereo unspecified) | > 1000 nM
Cc1nc(N[C@@H]2CCCc3ccccc32)cc(-c2cn[nH]c2)n1 | > 1000 nM
COC(=O)COc1cccc(C(C)Nc2cc(-c3cccc(OC)c3)nc(C)n2)c1 (stereo unspecified) | > 1000 nM
Cc1nc(N[C@@H]2CCCc3ccccc32)cc(-c2cccc(O)c2)n1 | 500 nM
Cc1nc(NCCCC(C)(C)CO)cc(-c2ccc3ncsc3c2)n1 | > 1000 nM
COc1cccc(-c2cc(N[C@@H]3CCCc4ccccc43)nc(C)n2)c1Cl | 500 nM
COc1ccc(Cl)c(-c2cc(N[C@@H]3CCCc4ccccc43)nc(C)n2)c1 | > 1000 nM
Cc1ccc2c(c1)C(Nc1cc(-c3ccc4ncsc4c3)nc(C)n1)CCO2 (stereo unspecified) | > 1000 nM
Cc1nc(N[C@H]2CCOc3ccccc32)cc(-c2ccc3ncsc3c2)n1 | > 1000 nM
Cc1nc(NCc2cccc(-n3cccc3)c2)cc(-c2ccc3ncsc3c2)n1 | > 1000 nM
Cc1nc(NC(C)c2cccc(OC(C)(C)C(N)=O)c2)cc(-c2ccc3ncsc3c2)n1 (stereo unspecified) | 500 nM
Cc1nc(N[C@@H]2CCCc3ccccc32)cc(-c2cncnc2)n1 | > 1000 nM
CCc1coc2ccc(-c3cc(NC(C)c4cccc(OCc5cc(C)nn5C)c4)nc(C)n3)cc12 (stereo unspecified) | > 1000 nM
COc1cccc(-c2cc(NC3CCc4ccccc43)nc(C)n2)c1Cl (stereo unspecified) | 500 nM
Cc1nc(NC(C)c2cccc(C(=N)N)c2)cc(-c2ccc3ncsc3c2)n1 (stereo unspecified) | 500 nM
COc1cccc([C@H](C)Nc2cc(-c3cccc(F)c3)nc(C)n2)c1 | 500 nM
COc1cccc(-c2cc(N[C@@H](C)c3cccc(C(F)(F)F)c3)nc(C)n2)c1 | > 1000 nM
Cc1cc(C)c2c(c1)C(Nc1cc(-c3ccc4ncsc4c3)nc(C)n1)CCC2 (stereo unspecified) | > 1000 nM
COc1cccc(-c2cc(NC(C)c3cccc(Br)c3)nc(C)n2)c1Cl (stereo unspecified) | 500 nM
COc1ccc(F)c(-c2cc(N[C@@H]3CCCc4ccccc43)nc(C)n2)c1 | > 1000 nM
